The numbers were not newly measured in patent US20140363484A1, “FIBROUS BIO-DEGRADABLE POLYMERIC WAFERS SYSTEM FOR THE LOCAL DELIVERY OF THERAPEUTIC AGENTS IN COMBINATIONS” (Amrita Vishwa Vidyapeetham, priority 2012, published 2014), which cites them from elsewhere.

SMILES strings stand for the structures.

For the series the following is noted: under physiological conditions.

For the compound `Cn1nnc2c(C(N)=O)ncn2c1=O` [temozolomide], the half-life is given as 1.8 h.

The half-life is how long it takes for the measured level to halve.
